Test results taken from patent US7183255B2, “Method for stabilizing blood pressure in hemodialysis subjects” (Intradialytic Pharmaceuticals, priority 2003, dated 2007).
Several values for one entry are separate records, joined by “and”; a condition that tells them apart may be missing. Equal values may be shown once. Entries after “also recorded” stand apart in the source; their conditions may differ.

Columns and labels:
Assay type in all cases: in vivo, human
normal subjects = experiment: Systolic arterial pressure during AVP infusion in normal subjects (Example 1); settings: for systolic arterial blood pressure: normals, n=12, M ± SD
Experimental: (§1) Healthy controls and patients with end-stage renal disease (e.g. defined as creatinine clearance of less than 10 ml/min) were studied. The studies were conducted on regularly scheduled hemodialysis days. The duration of hemodialysis remained the same as that prescribed prior to the study period. AVP or placebo (normal saline) was administered at a constant rate of 0.15, 0.3 or o.6 mU/kg/min through a venous line (controls) or through the venous limb of the dialysis circuit (hemodialysis patients). The patient's hemodialysis prescription remained unchanged except for the administration of AVP or placebo. Intradialytic hypotension was treated in the customary manner with the infusion of isotonic and hypertonic fluids.
(§2) Serum AVP levels were determined by a radioimmunoassay technique. Blood pressure was measured with a cuff-type sphygmomanometer at 20 minute intervals.
(§3) We discovered that patients with ERSD are hypersensitive to vasopressin's pressor action.
(§4) The administration of exogenous AVP to patients with ESDR led to the discovery that these patients are hyper-responsive to the vascular effect of this hormone.

[1] = test system: patients with end-stage renal disease; experiment: Systolic arterial pressure during AVP infusion in ESRD patients off dialysis (Example 1); settings: for systolic arterial blood pressure: ESRD, n=12, M ± SD
Experimental: as §1, §2, §3, §4

[2] = test system: ESRD patients during hemodialysis; experiment: Systolic arterial pressure during hemodialysis with AVP infusion vs vehicle, twelve patients (Example 1); settings: for systolic arterial pressure: dialysis with AVP infused, M ± SD
Experimental: as §1, §2
AVP administration results in a higher intra-dialysis blood pressure. To examine whether vasopressin could help in supporting blood pressure during dialysis, we dialyzed a group of ESRD patients during administration of vehicle or during administration of vasopressin at a dose without pressor effect in normal subjects.
To determine the blood pressure effect of exogenous AVP during dialysis, two dialysis treatments were administered to twelve patients. In one, only the vehicle used to administer AVP was given while in the other treatment, AVP was infused. As shown, systolic arterial pressure decreased more than 10 mm Hg during the control dialysis while it decreased a maximum of 5 mm Hg during the dialysis in which AVP was infused.

[3] = test system: ESRD patients during hemodialysis; experiment: Fluids needed to maintain blood pressure and weight lost during hemodialysis with AVP, 5 patients (Example 1, FIG. 6)
Experimental: as §1
AVP Administration allows more fluid removal. […] Dialysis during the administration of AVP resulted both in a decreased in the amount of intravenous fluids needed to maintain blood pressure and in a greater decrease in weight.
The amount of fluids to maintain blood pressure during dialysis and the weight decrease were as given below: […]

[4] = test system: hypertensive patients with ESRD on chronic hemodialysis; experiment: Randomized double-blinded trial of vasopressin vs placebo during hemodialysis with 0.5 kg increased target weight reduction (Example 3); settings: vasopressin 0.3 mU·kg^−1·min^−1 during dialysis; for Lowest SAP: p=0.02 vs placebo; for Symptomatic hypotensive episodes: one of eleven patients, p=0.001 vs placebo
Experimental: All patients were studied at regularly scheduled dialysis sessions. Patients underwent conventional hemodialysis with hollow fiber high flux polysulfone dialyzers on volumetric dialysis machines (Cobe Centrysystem 3, Gambro Renal Care Products, Inc., Lakewood, Colo.). Dialysis times were 3.5–4.5 hours. Blood flow was 300–400 mL/min and dialysate was delivered at 600 mL/min. The dialysis bath contained potassium, 2 mEq/L; calcium, 2.5 mEq/L; magnesium, 0.75 mEq/L; and bicarbonate, 40 mEq/L. In those patients who were prescribed dialysate sodium modeling and/or reduced dialysate temperature (35–37° C.) prior to the study, the parameters of these interventions were held constant throughout the study. Ultrafiltration was performed at a constant rate based on the target weight loss for that dialysis session. Oscillometric blood pressure and heart rate measurements were taken at 15–30 minute intervals.
Exclusion criteria for all studies were: 1) active vascular disease, including angina, claudication, transient ischemic events, ischemic colitis and Raynaud's disease, 2) a history of prolonged QT syndrome, 3) a history of orthostatic hypotension and 4) a systolic blood pressure greater than 200 mm Hg and/or a diastolic blood pressure greater than 100 mm Hg. Fluid was administered for pressor support at the discretion of the dialysis staff, blinded to the study drug, on the basis of hypotensive episodes during dialysis. Excess fluid removed was defined as the difference between the baseline prescription weight loss and the actual weight loss achieved during the study hemodialysis.
Hemodialysis-induced fluid removal during vasopressin administration in hypertensive patients. 22 patients with ESRD on chronic hemodialysis and hypertension (defined by a systolic arterial pressure greater than 140 mm Hg or the requirement of anti-hypertensive medications to maintain a lower systolic arterial pressure) were studied. A randomized, controlled and double blinded trial compared the effect of vasopressin (0.3 mU·kg^−1·min^−1) or placebo (normal saline) on the capacity to tolerate a 0.5 kg increase in the target weight reduction specified by the standard dialysis prescription. Patients were studied only if their pre-dialysis weight was within ±1 kg. of the mean pre-dialysis weight of the previous three sessions.
Otherwise the hemodialysis routine was unchanged and its management was left to the health care personnel performing the treatment, who where not involved in the study. The nurse administering the hemodialysis treatment managed hypotensive episodes per routine with administration of normal saline and/or a decrease in ultrafiltration rate. Symptomatic hypotension was identified by the nurse conducting the dialysis and criteria included a sudden drop in systolic arterial pressure associated with one or more of the following: lightheadedness, dizziness, cramping, nausea and vomiting.
Statistical Analyses. Analyses were performed using Statistical Package for the Social Sciences, version 9. Changes in hemodynamic parameters within patients during each session and between sessions were analyzed by repeated measures of ANOVA. Analysis of continuous variables between treatment arms was performed using the Friedman (two-way) analysis of variance. All values are expressed as mean±SE unless otherwise stated. P values of less than […] (two-tailed) were considered statistically significant.
Effect of vasopressin administration during increased hemodialysis-induced luid removal. […]

[5] = hemodialysis with AVP, individual patients 1-5

Compound: NC(=O)CC[C@@H]1NC(=O)[C@H](Cc2ccccc2)NC(=O)[C@H](Cc2ccc(O)cc2)NC(=O)[C@@H](N)CSSC[C@@H](C(=O)N2CCC[C@H]2C(=O)N[C@@H](CCCN=C(N)N)C(=O)NCC(N)=O)NC(=O)[C@H](CC(N)=O)NC1=O [AVP, 8-arginine vasopressin]
- pressor action of AVP (normal subjects; normal subjects, same dose as in ESRD patients (FIG. 3A)): no pressure action
- systolic arterial blood pressure (normal subjects; 30 minutes of AVP infusion): 114 ± 10
- systolic arterial blood pressure (normal subjects; 60 minutes of AVP infusion): 113 ± 10
- systolic arterial blood pressure (normal subjects; 90 minutes of AVP infusion): 114 ± 10
- systolic arterial blood pressure (normal subjects; 120 minutes of AVP infusion): 113 ± 11
- systolic arterial blood pressure (normal subjects; before infusion (baseline)): 115 ± 13
- systolic arterial blood pressure ([1]; 30 minutes of AVP infusion): 162 ± 30
- systolic arterial blood pressure ([1]; 60 minutes of AVP infusion): 161 ± 32
- systolic arterial blood pressure ([1]; 90 minutes of AVP infusion): 161 ± 28
- systolic arterial blood pressure ([1]; 120 minutes of AVP infusion): 150 ± 31
- systolic arterial blood pressure ([1]; before infusion (baseline)): 153 ± 28
- pressor action of AVP ([1]; patients with end-stage renal disease, same dose as in normal subjects (FIG. 3B)): increases blood pressure; also recorded: increased systolic arterial blood pressure
- decrease of systolic arterial pressure during dialysis ([2]; dialysis in which AVP was infused, control dialysis decreased more than 10 mm Hg): ≤ 5 mm Hg
- systolic arterial pressure ([2]; 30 minutes of dialysis): 153 ± 25 mm Hg
- systolic arterial pressure ([2]; 60 minutes of dialysis): 155 ± 29 mm Hg
- systolic arterial pressure ([2]; 90 minutes of dialysis): 149 ± 30 mm Hg
- systolic arterial pressure ([2]; 120 minutes of dialysis): 148 ± 30 mm Hg
- systolic arterial pressure ([2]; 150 minutes of dialysis): 149 ± 31 mm Hg
- systolic arterial pressure ([2]; 180 minutes of dialysis): 149 ± 30 mm Hg
- systolic arterial pressure ([2]; before dialysis, twelve patients): 153 ± 28 mm Hg
- blood pressure stability and extra fluid removal ([3]; all patients on AVP (FIG. 6)): the blood pressure was stable and extra fluid removal was possible
- Fluids given to maintain blood pressure during dialysis [3, 5]: 0 mL
- Weight lost [3, 5]: 2.8 Kg and 1.8 Kg and 2.2 Kg (2×) and 3.0 Kg
- Mean SAP during dialysis ([4]; 11 patients, mean±SE): 145 ± 6 mmHg
- Lowest SAP ([4]; 11 patients, mean±SE, listed as Vasopressin): 130 ± 7 mmHg
- Lowest SAP ([4]; 11 patients, mean±SE, listed as vasopressin): 130±7 mmHg
- Maximum drop in SAP from mean ([4]; 11 patients, mean±SE, p=0.03 vs placebo, listed as Vasopressin): 17 ± 2 mmHg
- Maximum drop in SAP from mean ([4]; 11 patients, mean±SE, p=0.03 vs placebo, listed as vasopressin): 17±2 mmHg
- Symptomatic hypotensive episodes ([4]; listed as Vasopressin): 9 ± 1%
- Symptomatic hypotensive episodes ([4]; listed as vasopressin): 9%
- normal saline administered for pressure support ([4]; p=0.03 vs placebo, FIG. 10A): 40 ± 43 mL
- volume of extra fluid removed during the dialysis above the baseline prescription ([4]; p=0.045 vs. placebo, FIG. 10B): 460 ± 100 mL
